In test [1] the test system is A. calcoaceticus No. 4. Description: in vitro antibacterial activity, agar plate dilution method (MIC). The format is cell-based, Acinetobacter calcoaceticus. To be noted: Acinetobacter calcoaceticus, NO.4, 16 h, A. calcoaceticus No. 4; 10^6 CFU/ml; read-out: Minimum Inhibitory Concentration (MIC). An outline of the steps: (§1)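 MIC in μg/ml, read after 16 h at 37° C. on Mueller Hinton agar carrying graded compound levels; inoculum 10^6 CFU/ml from overnight Mueller Hinton broth.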

In test [2] the test system is Enterobacter cloacae GN 5797. Description: β-lactamase inducibility. To be noted: antibiotic at 50, 10 and 1 μg/ml; cephaloridine as substrate. It is filed as cell-based. As to the method:
The assay method for induction of β-lactamase by β-latam antibiotics was as follows:
The test organism, Enterobacter cloacae GN 5797, was grown overnight in Mueller Hinton broth (Dlfco Laboratories, Detroit, Mich.) at 37° C. The culture was diluted 10-fold into 20 ml of the flesh medium and incubated with shaking at 37° C. After 2 hours of incubation, antibiotics were added to final concentrations of 50 μg/ml, 10 μg/ml and 1 μg/ml, and the incubation was continued. At 1 hour intervals after the addition of antibiotic, 3 ml of sample was taken, and immediately added with 0.1 ml of 50 mM sodium azide. The cells were harvested and washed with 50 mM phosphate buffer (ph 7.0). The cells were suspended in 5 ml of 50 mM phosphate buffer and disrupted with a sonicater in an ice-water bath. The broken cells were centrifuged at 16,500 G for 40 minutes at 4° C., and the resulting supernatant fluid was used as the crude enzyme. β-Lactamase activity was determined by a sopectrophotometric method (Antmicrob. Agents Chemother. 17, 355-358, 1980) with cephaloridine as substrate. The concentration of protein was determined by the method of Lowry (J. Biol. Chem. 193, 265-275, 1951). […] As a representative example, the compound of EXAMPLE 50 was administered to mice by means of subcutaneous administration, and the concentration in the blood was measured.

The test system of test [3] is E. coli CSH(RE45). Kind of test: microbe, parasite or virus in culture. The format is cell-based. To be noted: Escherichia coli, 16 h, read-out: Minimum Inhibitory Concentration (MIC), *E. coli CSH(RE45), lactamase-producing strain; 10^6 CFU/ml. An outline of the steps: as §1
For test [4], the system named is E. coli CSH2 (RK1). Description: microbe, parasite or virus in culture. To be noted: Escherichia coli, 16 h, read-out: Minimum Inhibitory Concentration (MIC), *E. coli CSH2 (RK1), lactamase-producing strain; 10^6 CFU/ml. It is filed as cell-based. An outline of the steps: as §1
The subject of test [5] is Ps. aeruginosa IF03445. Description: in vitro antibacterial activity, agar plate dilution method (MIC). The format is cell-based, Pseudomonas aeruginosa. The conditions noted are these: Pseudomonas aeruginosa, IF03445, 16 h, read-out: Minimum Inhibitory Concentration (MIC), Ps. aeruginosa IF03445; 10^6 CFU/ml. An outline of the steps:
as §1

The subject of test [6] is Ps. aeruginosa AK 109. Described as above. It is filed as cell-based, Pseudomonas aeruginosa. To be noted: Pseudomonas aeruginosa, AK109, 16 h, read-out: Minimum Inhibitory Concentration (MIC). In outline:
as §1

Test [7] relates to Ps. aeruginosa AKR17. Described as above. The format is cell-based, Pseudomonas aeruginosa. To be noted: Pseudomonas aeruginosa, AKR17, 16 h, read-out: Minimum Inhibitory Concentration (MIC), Ps. aeruginosa AKR17; 10^6 CFU/ml. An outline of the steps:
as §1

Test [8] relates to E. coli NIHJ JC2. The test is described as above. It is filed as cell-based. To be noted: Escherichia coli, NIHJJC2, 16 h, read-out: Minimum Inhibitory Concentration (MIC), E. coli NIHJ JC2, 10^6 CFU/ml, 37° C. An outline of the steps: as §1
The subject of test [9] is K. pneumoniae PCI-602. Described as above. It is filed as cell-based. To be noted: Klebsiella pneumoniae, PCI602, 16 h, 10^6 CFU/ml. In outline:
as §1

Test [10] deals with E. coli GN5482. The test is described as above. It is filed as cell-based. The conditions noted are these: Escherichia coli, GN5482, 16 h. In outline:
as §1

In test [11] the test system is K. oxytoca GN10650. Described as above. To be noted: Klebsiella oxytoca, GN10650, 16 h, read-out: Minimum Inhibitory Concentration (MIC), *K. oxytoca GN10650, lactamase-producing strain; 10^6 CFU/ml. It is filed as cell-based. In outline:
as §1

The subject of test [12] is S. aureus 209P NIHJ-JC1. The description is as above. The format is cell-based. The conditions noted are these: Staphylococcus aureus, 16 h, read-out: Minimum Inhibitory Concentration (MIC). An outline of the steps: as §1
In test [13] the test system is M. morganii GN5407. The test is described as above. It is filed as cell-based. To be noted: Morganella morganii, GN5407, 16 h, read-out: Minimum Inhibitory Concentration (MIC), *M. morganii GN5407, lactamase-producing strain; 10^6 CFU/ml. An outline of the steps:
as §1

Test [14] deals with P. vulgaris HX-19. The description is as above. The format is cell-based. To be noted: Proteus vulgaris, HX19, 16 h, read-out: Minimum Inhibitory Concentration (MIC). An outline of the steps:
as §1

The test system of test [15] is P. vulgaris No. 33. The test is described as above. The format is cell-based. The conditions noted are these: Proteus vulgaris, NO.33, 16 h, read-out: Minimum Inhibitory Concentration (MIC), *P. vulgaris No. 33, lactamase-producing strain; 10^6 CFU/ml. In outline: as §1
For test [16], the system named is S. marcescens No. 16-2. The test is described as above. It is filed as cell-based. To be noted: Serratia marcescens, NO.162, 16 h. In outline:
as §1

The subject of test [17] is E. cloacae 963. Described as above. The format is cell-based. To be noted: 10^6 CFU/ml. In outline:
as §1

For test [18], the system named is E. cloacae Nek 39. Described as above. It is filed as cell-based. The conditions noted are these: Enterobacter cloacae, NEK39, 16 h, read-out: Minimum Inhibitory Concentration (MIC), *E. cloacae Nek 39, lactamase-producing strain; 10^6 CFU/ml. An outline of the steps: as §1
For test [19], the system named is S. marcescens IAM 1184. The test is described as above. It is filed as cell-based. To be noted: Serratia marcescens, IAM1184, 16 h, S. marcescens IAM 1184; 10^6 CFU/ml; read-out: Minimum Inhibitory Concentration (MIC). In outline:
as §1

Test [20] has as its system K. pneumoniae No. 42. The description is as above. It is filed as cell-based. To be noted: Klebsiella pneumoniae, NO.42, 16 h, read-out: Minimum Inhibitory Concentration (MIC), *K. pneumoniae No. 42, lactamase-producing strain; 10^6 CFU/ml. An outline of the steps: as §1
Test [21] has as its system Ps. cepacia 23. Described as above. It is filed as cell-based, Pseudomonas cepacia. To be noted: Burkholderia cepacia, 16 h; Ps. cepacia 23; 10^6 CFU/ml; read-out: Minimum Inhibitory Concentration (MIC). An outline of the steps: as §1
[22] abbreviates: read-out: Minimum Inhibitory Concentration (MIC).
Setting [23] is: Enterobacter cloacae, 16 h, E. cloacae 963, read-out: Minimum Inhibitory Concentration (MIC).
[24] abbreviates: read-out: Minimum Inhibitory Concentration (MIC), K. pneumoniae PCI-602.
The mark [25] stands for this setting: read-out: Minimum Inhibitory Concentration (MIC), *S. marcescens No. 16-2, lactamase-producing strain, 10^6 CFU/ml.

The values below come from patent US5061794A, “Cephalosporin derivatives, and antibacterial agents” (priority 1986, dated 1991).

≈ marks a conversion by molar mass, not a printed value. Read-outs that look alike come from different tables or passages of the source. Bounds are passed on as bounds.

As to `CC(C)(O/N=C(\C(=O)N[C@@H]1C(=O)N2C(C(=O)O)=C(CSc3nnc(-c4ccc(O)c(O)c4)s3)CS[C@H]12)c1csc(N)n1)C(=O)O` [Ex. 34], the MIC in test [1] was 0.05 µg/mL (≈ 0.0721 µM); in [3], < 0.006 µg/mL; in test [4], < 0.006 µg/mL; in test [5] it was 0.39 µg/mL (≈ 0.562 µM); in [6] (Ps. aeruginosa AK 109, 10^6 CFU/ml), 0.1 µg/mL (≈ 0.144 µM); in test [7], 1.56 µg/mL (≈ 2.25 µM). The MIC in test [8] stood at 0.1 µg/mL (≈ 0.144 µM); in test [9] (K. pneumoniae PCI-602, read-out: Minimum Inhibitory Concentration (MIC)) it was 0.0125 µg/mL (≈ 0.018 µM); in [10] (read-out: Minimum Inhibitory Concentration (MIC), *E. coli GN5482, lactamase-producing strain, 10^6 CFU/ml), 0.78 µg/mL (≈ 1.12 µM); in test [11], 0.025 µg/mL (≈ 0.036 µM); in test [12], 12.5 µg/mL (≈ 18 µM); in test [13], 0.05 µg/mL (≈ 0.0721 µM). Also, the MIC in [14] (P. vulgaris HX-19, 10^6 CFU/ml) was < 0.006 µg/mL; in test [15], 0.025 µg/mL (≈ 0.036 µM); in [16] (setting [22]), 0.1 µg/mL (≈ 0.144 µM); in test [17] (setting [23]), 0.1 µg/mL (≈ 0.144 µM); in test [18], 0.1 µg/mL (≈ 0.144 µM); in test [19], 0.025 µg/mL (≈ 0.036 µM). Moreover, the results for the MIC in [20] and in [21] were 0.0125 µg/mL (≈ 0.018 µM) and < 0.006 µg/mL, respectively. The β-lactamase inducibility result in [2] was “no substantial β-lactamase-inducing activity was observed”.
In the case of `CC(C)(ON=C(C(=O)NC1C(=O)N2C(C(=O)O)=C(CSc3nc(-c4ccc(O)c(O)c4)cs3)CSC12)c1csc(N)n1)C(=O)O` (stereo not drawn) [Ex. 44, disodium 7β-[2-(2-aminothiazol-4-yl)-2-(1-carboxylate-1-methylethoxyimino)acetamido]-3-[4-(3,4-dihydroxyphenyl)thiazol-2-yl]thiomethyl-3-cephem-4-carboxylate], the MIC in test [1] was 0.2 µg/mL; in test [3], 0.0125 µg/mL; in test [4], 0.0125 µg/mL; in test [5], 0.39 µg/mL; in test [6], 0.39 µg/mL; in test [7], 1.56 µg/mL. The MIC in test [8] is 0.2 µg/mL; in [9] (setting [24]), < 0.006 µg/mL; in [10] (setting [22]), 0.39 µg/mL; in test [11] it was 0.025 µg/mL; in test [12], 12.5 µg/mL; in [13], 0.05 µg/mL. For the same compound, the MIC was found to be 0.0125 µg/mL in test [14]; 0.025 µg/mL in test [15]; 1.56 µg/mL in [16] (setting [25]); 0.1 µg/mL in [17] (setting [23]); 0.1 µg/mL in test [18]; 0.05 µg/mL in [19]. Moreover, the MIC in test [20] was 0.1 µg/mL; in test [21], < 0.006 µg/mL. The β-lactamase inducibility entry in [2] is reported as “no substantial β-lactamase-inducing activity was observed”.
As to `CC(C)(O/N=C(\C(=O)N[C@@H]1C(=O)N2C(C(=O)O)=C(CSc3ncc(-c4ccc(O)c(O)c4)o3)CS[C@H]12)c1csc(N)n1)C(=O)O` [Ex. 64, disodium 7β-[2-(2-aminothiazol-4-yl)-2-(1-carboxylate-1-methylethoxyimino)acetamido]-3-[5-(3,4-dihydroxyphenyl)oxazol-2-yl]thiomethyl-3-cephem-4-carboxylate], the MIC is 0.2 µg/mL in [1]; 0.025 µg/mL in test [3]; 0.0125 µg/mL in test [4]; 0.78 µg/mL in test [5]; 0.39 µg/mL in test [6]; 1.56 µg/mL in [7]. Also, the MIC in [8] was 0.78 µg/mL; in test [9] (setting [24]), 0.0125 µg/mL; in test [10] (setting [22]) it was 3.12 µg/mL; in [11], 0.1 µg/mL; in test [12] (S. aureus 209P NIHJ-JC1, 10^6 CFU/ml, 37° C., 16 hours), 25 µg/mL; in [13], 0.1 µg/mL. Besides, the MIC in test [14] was found to be 0.0125 µg/mL; in test [15], 0.025 µg/mL; in test [16] (setting [25]), 1.56 µg/mL; in test [17] (Enterobacter cloacae, 963, 16 h, read-out: Minimum Inhibitory Concentration (MIC), E. cloacae 963) it was 0.39 µg/mL; in test [18], 0.2 µg/mL; in test [19] it was 0.1 µg/mL. Besides, the MIC is 0.05 µg/mL in test [20] and < 0.006 µg/mL in [21]. In addition, the β-lactamase inducibility result in test [2] is “no substantial β-lactamase-inducing activity was observed”.
